Results reported in US6632621B1, “G protein-coupled receptor-like receptors and modulators thereof” (priority 1999, dated 2003).
*1 amine or outer side, *2 acyl side, *3 side chain or, on linkers, in order; H or OH if unused. Where no end group is shown, it is not given here. [ ]: non-standard residue; d: D form. Tyr(125I) = 125I-iodinated Tyr, O=C([C@H](Cc1ccc(O[*:3])c([125I])c1)N[*:1])[*:2]; Tyr(3-I) = N[C@@H](Cc1ccc(O)c(I)c1)C(=O)O

Legend:
CEGPCR4 receptor [1] = biological target: T1, CEGPCR4 receptor (Caenorhabditis elegans, UniProt A0A078BTK0); assay: [35S]GTPγS binding assay, membranes of CHO cells transfected with CEGPCR4; assay type: biochemical, C. elegans
T1 sequence (A0A078BTK0 1-376): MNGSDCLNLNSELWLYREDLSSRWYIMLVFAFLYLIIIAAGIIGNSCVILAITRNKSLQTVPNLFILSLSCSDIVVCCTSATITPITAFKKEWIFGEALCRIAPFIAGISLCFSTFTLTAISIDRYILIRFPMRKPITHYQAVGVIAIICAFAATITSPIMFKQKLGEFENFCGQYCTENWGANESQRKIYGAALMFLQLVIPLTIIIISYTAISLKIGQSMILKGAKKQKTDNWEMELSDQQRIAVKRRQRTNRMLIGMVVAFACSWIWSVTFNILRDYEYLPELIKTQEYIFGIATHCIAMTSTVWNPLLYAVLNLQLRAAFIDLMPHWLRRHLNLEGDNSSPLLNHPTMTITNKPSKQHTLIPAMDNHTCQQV
Method: Recombinant pCR3.1 clones encoding invertebrate GPCR-like receptors were transformed into wild-type CHO-K1 cells and functional expression was achieved using a temperature-shift incubation protocol. The CHO-K1 cells were cultured at 37° C. in a humidified atmosphere of 5% CO2 in air in DMEM medium supplemented with 10% heat-inactivated fetal bovine serum (i.e., FBS), 10 μg/ml gentamicin, and 0.1 mM nonessential amino acids to give complete DMEM medium. Additionally, for incubations at temperatures lower than 37° C., the medium was fortified with 10 mM HEPES (pH 7.4). Cells were transfected with recombinant pCR3.1 clones containing GPCR-like receptor DNAs, using LipofectAMINE PLUS™, essentially according to the manufacturer's instructions. […] In separate plastic tubes, PLUS (20 μl/plate; Life Technologies) was added to 0.75 ml/plate of recombinant plasmid DNA in OptiMEM (5 μg/plate; Gibco/BRL—Life Technologies), mixed and incubated at room temperature for 15 minutes. Separately, LipofectAMINE (30 μl/plate) was mixed with 0.75 ml OptiMEM and added to the pre-complexed DNA/PLUS mixture and incubated at room temperature for 15 minutes. […]
To assess expression, membranes were prepared from transfected CHO-K1 cells. […] Membrane protein concentration was determined using the BCA Protein Assay Reagent from Pierce (Rockford, Ill.), with bovine serum albumin (i.e., BSA) as a standard. […]

CEGPCR12c = assay: [35S]GTPγS binding assay, membranes of CHO cells transfected with CEGPCR12c; assay type: biochemical, C. elegans
CEGPCR12h receptor = biological target: T2, CEGPCR12h receptor (Caenorhabditis elegans, UniProt Q20275); assay: [35S]GTPγS binding assay, CEGPCR12h expressed in CHO cells; assay type: biochemical, C. elegans
T2 sequence (Q20275 1-402): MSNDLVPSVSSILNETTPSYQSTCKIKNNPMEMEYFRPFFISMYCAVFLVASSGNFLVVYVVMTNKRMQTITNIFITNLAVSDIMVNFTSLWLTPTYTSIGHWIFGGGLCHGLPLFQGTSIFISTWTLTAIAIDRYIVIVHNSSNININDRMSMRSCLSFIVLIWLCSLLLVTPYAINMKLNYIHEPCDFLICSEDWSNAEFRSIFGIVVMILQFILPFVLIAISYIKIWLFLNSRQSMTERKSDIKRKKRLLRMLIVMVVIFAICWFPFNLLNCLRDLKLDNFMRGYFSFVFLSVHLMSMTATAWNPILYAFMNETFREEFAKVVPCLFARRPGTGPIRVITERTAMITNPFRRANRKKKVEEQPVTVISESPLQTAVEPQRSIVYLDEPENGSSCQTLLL
Method: Recombinant pCR3.1 clones encoding invertebrate GPCR-like receptors were transformed into wild-type CHO-K1 cells and functional expression was achieved using a temperature-shift incubation protocol. The CHO-K1 cells were cultured at 37° C. in a humidified atmosphere of 5% CO2 in air in DMEM medium supplemented with 10% heat-inactivated fetal bovine serum (i.e., FBS), 10 μg/ml gentamicin, and 0.1 mM nonessential amino acids to give complete DMEM medium. Additionally, for incubations at temperatures lower than 37° C., the medium was fortified with 10 mM HEPES (pH 7.4). Cells were transfected with recombinant pCR3.1 clones containing GPCR-like receptor DNAs, using LipofectAMINE PLUS™, essentially according to the manufacturer's instructions. […] In separate plastic tubes, PLUS (20 μl/plate; Life Technologies) was added to 0.75 ml/plate of recombinant plasmid DNA in OptiMEM (5 μg/plate; Gibco/BRL—Life Technologies), mixed and incubated at room temperature for 15 minutes. Separately, LipofectAMINE (30 μl/plate) was mixed with 0.75 ml OptiMEM and added to the pre-complexed DNA/PLUS mixture and incubated at room temperature for 15 minutes. The culture medium was then replaced with serum-free transfection medium (DMEM, 5 ml/plate). The DNA-PLUS-LipofectAMINE complex was then added to the plates (1.5 ml/plate) and mixed gently into the medium, followed by a 3 hour incubation at 37° C. in 5% CO2. At this time, the medium was supplemented with complete DMEM medium containing 20% FBS (6.5 ml/plate) and incubation was continued at 37° C. in 5% CO2. After a total of 24 hours at 37° C. in 5% CO2, the medium was replaced with complete DMEM medium fortified with 10 mM HEPES (10 ml/plate) and the cells were moved to an incubator maintained at 28-30° C. in a humidified atmosphere of 5% CO2 in air. The incubation continued for an additional 24 hours, typically at the lower temperature indicated above. A plasmid encoding Green Fluorescent Protein (i.e., GFP, 4 μg/plate) was used for transient GFP expression in CHO-K1 cells to estimate the transfection yields under the same conditions as used for GPCR-like receptor polynucleotides.
To assess expression, membranes were prepared from transfected CHO-K1 cells. Transfected cells were washed once with ice-cold Dulbecco's phosphate-buffered saline (i.e., PBS), 5 ml per 10 cm plate, and the cells were scraped into 5 ml of the same buffer. Cell suspensions from multiple plates were combined and centrifuged at 500×g for 10 minutes at 4° C. The cell pellet was reconstituted in ice-cold TEE (25 mM Tris, pH 7.4, 5 mM EGTA, 5 mM EDTA). Convenient aliquots were snap-frozen in liquid nitrogen and stored at −70° C. After thawing, the cells were homogenized and centrifuged at 500×g for 5 minutes at 4° C. to pellet nuclei and unbroken cells. Tile supernatant was centrifuged at 47,000×g for 30 minutes at 4° C. The membrane pellet was washed once with TEE, resuspended in 20 mM HEPES, pH 7.4, 100 mM NaCl, 10 mM MgCl2, 1 mM EDTA (assay buffer), distributed into aliquots of 0.5-1.0 ml, and frozen in liquid nitrogen. Membrane aliquots were stored at −70° C. Membrane protein concentration was determined using the BCA Protein Assay Reagent from Pierce (Rockford, Ill.), with bovine serum albumin (i.e., BSA) as a standard.
Aliquots of cell membranes prepared as described above and stored at −70° C. were thawed, homogenized, and diluted into buffer containing 20 mM HEPES, pH 7.4, 10 mM MgCl2, 1 mM EDTA, and 100 mM NaCl at a concentration of 10-50 μg/ml. Reaction mixtures were prepared in 96-well polypropylene plate, Nunc. Twenty microliters of a 10× putative modulator compound (including but not limited to potential peptide ligands) solution or a water control (20 μl), 18.2 µM GDP (0.11 ml, 10 μM final concentration), and a membrane preparation were mixed and placed on ice. The modulator/ligand-GDP-membrane mixtures were incubated for 20 minutes at room temperature on a shaking platform and then placed on ice.

CEGPCR4 receptor [2] = biological target: T1, CEGPCR4 receptor; assay: Flp18 binding assay: [125I]YDVPGVLRFamide binding and competition on CEGPCR4/CHO membranes; design: species or system C. elegans; conditions: in words
Method: A peptide ligand screening assay that measures ligand binding to a suitable GPCR-like receptor according to the invention is exemplified using a modified C. elegans Flp18 peptide ligand.
Membranes for use in the assay are derived from cells stably transfected with a GPCR-like receptor expression construct. The transfected cells are grown in 10 cm dishes to subconfluence, rinsed once with 5 ml of ice-cold Ca^2+/Mg^2+—free PBS, and scraped into 5 ml of the same buffer. Cells are pelleted by centrifugation (500×g, 5 minutes), resuspended in 25 mM Tris, pH 7.5, 5 mM EDTA, 5 mM EDTA, pH 7.5 (TEE), and frozen in liquid nitrogen. After thawing, the cells are homogenized using a Dounce homogenizer (one ml TEE per plate of cells), and centrifuged at 1,000×g for 5 minutes to remove nuclei and unbroken cells.
The homogenate supernatant is centrifuged at 20,000×g for 20 minutes to isolate the membrane fraction, and the membrane pellet is washed once with TEE and resuspended in binding buffer (20 mM HEPES, pH 7.5, 150 mM NaCl, 10 mM MgCl2, 1 mM EDTA). […]
The peptide ligand screening assay is facilitated by use of 96-well plates Millipore Multiscreen® filtration plates (FB opaque 1.0 μM glass fiber type B, catalog number MAFBNOB50). […] The following day, the plate is counted in a Microbeta® scintillation counter.

CEGPCR4 = biological target: T3, CEGPCR4 (C. elegans); assay: radioligand binding to CEGPCR4/CHO membranes
T3 construct: Expressed in CHO cells; also called CEGPCR4 receptor; CEGPCR4/CHO membranes
T3 chain: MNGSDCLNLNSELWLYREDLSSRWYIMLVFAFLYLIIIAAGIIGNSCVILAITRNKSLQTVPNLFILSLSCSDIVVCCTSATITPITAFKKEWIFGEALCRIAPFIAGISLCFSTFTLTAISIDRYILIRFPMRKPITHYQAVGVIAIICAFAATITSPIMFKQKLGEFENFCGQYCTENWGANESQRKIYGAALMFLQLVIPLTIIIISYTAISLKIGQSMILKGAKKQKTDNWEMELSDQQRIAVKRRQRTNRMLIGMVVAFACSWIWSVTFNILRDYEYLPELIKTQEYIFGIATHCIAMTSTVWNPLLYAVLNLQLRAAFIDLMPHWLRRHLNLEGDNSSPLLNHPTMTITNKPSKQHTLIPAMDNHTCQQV

[3] = biological target: T4, CEGPCR7 (C. elegans), Q18534; assay: cell-based or functional assay
T4 chain: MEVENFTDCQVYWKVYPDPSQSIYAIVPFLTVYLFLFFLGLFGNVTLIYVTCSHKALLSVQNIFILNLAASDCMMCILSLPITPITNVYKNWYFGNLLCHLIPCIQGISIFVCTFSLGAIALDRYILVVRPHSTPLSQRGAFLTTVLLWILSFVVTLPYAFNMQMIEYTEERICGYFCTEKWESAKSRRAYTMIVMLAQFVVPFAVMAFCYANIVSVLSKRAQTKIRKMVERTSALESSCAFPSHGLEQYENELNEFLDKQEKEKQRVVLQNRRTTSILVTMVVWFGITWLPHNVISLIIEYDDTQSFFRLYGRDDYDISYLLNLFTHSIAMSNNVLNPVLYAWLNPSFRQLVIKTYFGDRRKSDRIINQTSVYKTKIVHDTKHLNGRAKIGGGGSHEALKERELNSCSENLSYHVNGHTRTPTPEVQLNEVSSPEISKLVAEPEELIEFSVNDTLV

[4] = membranes from cells transfected and maintained at 37° C.
[5] = temperature shift to 28° C. 24 hours after transfection

Molecule: PDVDHVFLRF-NH2 [PDVDHVFLRF-NH2]
- receptor activation by matched ligand (CEGPCR4 receptor [1]; [4]): not detectably activated
- ligand-induced [35S]GTPγS binding (CEGPCR4 receptor [1]; [5]): significant stimulation
- receptor activation by matched ligand (CEGPCR12c; [4]): not detectably activated
- ligand-induced [35S]GTPγS binding (CEGPCR12c; [5]): significant stimulation
- EC50 (CEGPCR12h receptor; EC50): 330 nM
- EC50 (CEGPCR12h receptor; EC50 range, Table 11, one range for the group, results apply to all CEGPCR12 isoforms): 300 to 500 nM

Molecule: [^125I-Y]DVPGVLRF-NH2 ([Tyr(125I)]DVPGVLRF-NH2)
- Kd, binding to the CEGPCR4/CHO membranes (CEGPCR4 receptor [2]): subnanomolar range

B1: 3-Iodo-Y-DVPGVLRF-NH2 (peptide)
peptide: [Tyr(3-I)]DVPGVLRF-NH2
modifications: N-terminus assumed
SMILES: CC(C)C[C@H](NC(=O)[C@@H](NC(=O)CNC(=O)[C@@H]1CCCN1C(=O)[C@@H](NC(=O)[C@H](CC(=O)O)NC(=O)[C@@H](N)Cc1ccc(O)c(I)c1)C(C)C)C(C)C)C(=O)N[C@@H](CCCNC(=N)N)C(=O)N[C@@H](Cc1ccccc1)C(N)=O
notes: Synthetic flp18 analog; the radioiodinated form is treated as the same molecule
- Kd (CEGPCR4): < 1 nM

B2: …-NH2 (AF9) (peptide)
peptide: GLGPRPLRF-NH2
- AF9-induced [35S]GTPγS binding, constant 37° C. (third experiment) [3]: 1.4 fold
